Earlier results as cited in patent US20110165150A1, “Isolated organ perfusion combination therapy of cancer” (Merck Patent GmbH, priority 2006, published 2011).

Test system: integrin receptors αvβ3, αvβ1, αvβ6, αvβ8, αIIbβ3
Conditions: especially αvβ3 and/or αvβ5

- blocking the integrin receptors: efficacious in blocking
SMILES: CC(C)[C@H]1C(=O)N[C@@H](CCCN=C(N)N)C(=O)NCC(=O)N[C@@H](CC(=O)O)C(=O)N[C@H](Cc2ccccc2)C(=O)N1C [Cilengitide, cyclo-(Arg-Gly-Asp-DPhe-NMeVal)]
